This note sets out measurements from PubChem BioAssay AID220 (DTP/NCI, 2004).

Several values for one entry are separate records, joined by “and”; a condition that tells them apart may be missing. Equal values may be shown once. Results filed as inconclusive are left out.

The experiment has as its system CD8F1 mice, subcutaneous mammary adenocarcinoma, T/C%. Description: NCI In Vivo Anticancer Drug Screen. Data for tumor model Mammary Adenocarcinoma CD8F1 (subcutaneous) in CD8F1. The settings on record: higher = larger tumour. The procedure: The antitumor activity of compounds was measured in mice bearing transplantable tumors. Survival or tumor size were measured and the results are expressed as the measurement made in the treated group (T) divided by the measurement made in the vehicle treated control group (C). The tumor model used in this assay is Mammary Adenocarcinoma CD8F1 (subcutaneous) in CD8F1

The mark [1] stands for this setting: endpoint: median tumor weight change, dose: 37.5 mg/kg/injection, schedule: Q01DX001 (ip), vehicle: Klucel (hydroxypropylcellulose) (HPC).
Setting [2] is: endpoint: median tumor weight change, dose: 75.0 mg/kg/injection, schedule: Q01DX001 (ip), vehicle: Klucel (hydroxypropylcellulose) (HPC).
The mark [3] stands for this setting: endpoint: median tumor weight (est.), dose: 6.25 mg/kg/injection, schedule: Q07DX005 (ip), vehicle: Klucel (hydroxypropylcellulose) (HPC).
The mark [4] stands for this setting: endpoint: median tumor weight (est.), dose: 12.5 mg/kg/injection, schedule: Q07DX005 (ip), vehicle: Klucel (hydroxypropylcellulose) (HPC).
[5] abbreviates: endpoint: median tumor weight (est.), dose: 200.0 mg/kg/injection, schedule: Q07DX005 (ip), vehicle: Klucel (hydroxypropylcellulose) (HPC).
Setting [6] is: endpoint: median tumor weight (est.), dose: 6.25 mg/kg/injection, schedule: Q07DX005 (ip), vehicle: saline.
[7] abbreviates: endpoint: median tumor weight (est.), dose: 12.5 mg/kg/injection, schedule: Q07DX005 (ip), vehicle: saline.
The mark [8] stands for this setting: endpoint: median tumor weight (est.), dose: 25.0 mg/kg/injection, schedule: Q07DX005 (ip), vehicle: saline.
Where [9] appears, read: endpoint: median tumor weight (est.), dose: 100.0 mg/kg/injection, schedule: Q07DX005 (ip), vehicle: saline.
The mark [10] stands for this setting: endpoint: median tumor weight (est.), dose: 25.0 mg/kg/injection, schedule: Q07DX005 (ip), vehicle: Klucel (hydroxypropylcellulose) (HPC).
Where [11] appears, read: endpoint: median tumor weight (est.), dose: 100.0 mg/kg/injection, schedule: Q07DX005 (ip), vehicle: Klucel (hydroxypropylcellulose) (HPC).
Where [12] appears, read: endpoint: median tumor weight (est.), dose: 12.5 mg/kg/injection, schedule: Q07DX005 (ip), vehicle: saline with Tween-80.
Setting [13] is: endpoint: median tumor weight (est.), dose: 25.0 mg/kg/injection, schedule: Q07DX005 (ip), vehicle: saline with Tween-80.

In the case of `COc1cc(Cc2nccc3cc(OC)c(OC)cc23)c(C(C)=O)cc1OC`, the T/C runs as follows: (endpoint: median tumor weight change, dose: 62.0 mg/kg/injection, schedule: Q01DX001 (ip), vehicle: saline) 93 % of control; (endpoint: median tumor weight change, dose: 62.5 mg/kg/injection, schedule: Q01DX001 (ip), vehicle: saline) 41 % of control; (endpoint: median tumor weight change, dose: 62.5 mg/kg/injection, schedule: Q01DX001 (ip), vehicle: suspension in saline) 54 % of control; (endpoint: median tumor weight change, dose: 125.0 mg/kg/injection, schedule: Q01DX001 (ip), vehicle: saline) 33 % of control and 35 % of control; (endpoint: median tumor weight change, dose: 125.0 mg/kg/injection, schedule: Q01DX001 (ip), vehicle: suspension in saline) 57 % of control; (endpoint: median tumor weight change, dose: 250.0 mg/kg/injection, schedule: Q01DX001 (ip), vehicle: saline) -6 % of control.

As to `CCCC(=O)O.CCCC(=O)O.CCCC(=O)O.CCCC(=O)O.[Rh].[Rh]`, the T/C runs as follows: (endpoint: median tumor weight change, dose: 0.62 mg/kg/injection, schedule: Q01DX001 (ip), vehicle: saline + alcohol) 116 % of control; (endpoint: median tumor weight change, dose: 1.25 mg/kg/injection, schedule: Q01DX001 (ip), vehicle: saline + alcohol) 81 % of control and 90 % of control; (endpoint: median tumor weight change, dose: 2.5 mg/kg/injection, schedule: Q01DX001 (ip), vehicle: saline + alcohol) 56 % of control.

On to `CC(=O)N(C)C`, for which the T/C (endpoint: median tumor weight change, dose: 225.0 mg/kg/injection, schedule: Q01DX001 (ip), vehicle: saline) was 52 % of control; the T/C (endpoint: median tumor weight change, dose: 450.0 mg/kg/injection, schedule: Q01DX001 (ip), vehicle: saline) was 85 % of control; the T/C (endpoint: median tumor weight change, dose: 900.0 mg/kg/injection, schedule: Q01DX001 (ip), vehicle: saline) is 72 % of control and 78 % of control.

As to `c1ccc(SSc2ccccn2)nc1`, the T/C is 123 % of control (endpoint: mean tumor weight, dose: 25.0 mg/kg/injection, schedule: Q07DX006 (ip), vehicle: saline) and 159 % of control (endpoint: mean tumor weight, dose: 100.0 mg/kg/injection, schedule: Q07DX006 (ip), vehicle: saline).

Regarding `C=C1C(=O)C2=CC1CCC(=O)C1(C)CCC(OC(C)=O)C(C)(C)C1CC2O` (centres undefined), the T/C under setting [1] was 83 % of control; the T/C under setting [2] was 88 % of control; the T/C (endpoint: median tumor weight change, dose: 150.0 mg/kg/injection, schedule: Q01DX001 (ip), vehicle: Klucel (hydroxypropylcellulose) (HPC)) was 30 % of control.

Consider `COc1cc2c(c(OC)c1OC)-c1ccc(OC)c(=O)cc1[C@@H](NC(=O)CCl)CC2`, for which the T/C (endpoint: median tumor weight change, dose: 5.0 mg/kg/injection, schedule: Q01DX001 (ip), vehicle: saline with Tween-80) was 76 % of control.

As to `C=C(NC(=O)C(=C)NC(=O)c1csc(C2=NC3c4csc(n4)C4NC(=O)c5csc(n5)C(C(C)(O)C(C)O)NC(=O)C5CSC(=N5)/C(=C/C)NC(=O)C(C(C)O)NC(=O)c5csc(n5)C3(CC2)NC(=O)C(C)NC(=O)C(=C)NC(=O)C(C)NC(=O)C(C(C)CC)NC2C=Cc3c(C(C)O)cc(nc3C2O)C(=O)OC4C)n1)C(N)=O` (centres undefined), the T/C reads like this: under setting [3], 72 % of control; under setting [4], 64 % of control and 70 % of control; under setting [5], 83 % of control and 103 % of control; (endpoint: median tumor weight (est.), dose: 400.0 mg/kg/injection, schedule: Q07DX005 (ip), vehicle: Klucel (hydroxypropylcellulose) (HPC)) 90 % of control.

`C/C=C1\C[C@@H]2C(OC)Nc3cc(O)c(OC)cc3C(=O)N2C1` (some centres undefined): the T/C is 105 % of control (endpoint: median tumor weight change, dose: 0.06 mg/kg/injection, schedule: Q01DX001 (ip), vehicle: saline); 96 % of control (endpoint: median tumor weight change, dose: 0.12 mg/kg/injection, schedule: Q01DX001 (ip), vehicle: saline); 105 % of control (endpoint: median tumor weight change, dose: 0.25 mg/kg/injection, schedule: Q01DX001 (ip), vehicle: saline); 76 % of control (endpoint: median tumor weight change, dose: 0.31 mg/kg/injection, schedule: Q01DX001 (ip), vehicle: suspension in saline); 90 % of control (endpoint: median tumor weight change, dose: 0.5 mg/kg/injection, schedule: Q01DX001 (ip), vehicle: saline); 53 % of control (endpoint: median tumor weight change, dose: 0.62 mg/kg/injection, schedule: Q01DX001 (ip), vehicle: suspension in saline). For the same molecule, the T/C (endpoint: median tumor weight change, dose: 1.0 mg/kg/injection, schedule: Q01DX001 (ip), vehicle: saline) was 92 % of control; the T/C (endpoint: median tumor weight change, dose: 1.25 mg/kg/injection, schedule: Q01DX001 (ip), vehicle: suspension in saline) was 43 % of control; the T/C (endpoint: median tumor weight change, dose: 2.0 mg/kg/injection, schedule: Q01DX001 (ip), vehicle: saline) was 42 % of control.

On to `CC(/C=N/N=C(N)N)=N\N=C(N)N`, for which the T/C by setting is: under setting [6], 100 % of control; under setting [7], 85 % of control; under setting [8], 110 % of control; under setting [9], 67 % of control.

As to `O=C(Nc1ccc(Cl)c(Cl)c1)Nc1c(Oc2ccc(Cl)c(Cl)c2)ccc(Cl)c1S(=O)(=O)O`, the T/C reads like this: under setting [3], 114 % of control; under setting [6], 78 % of control; under setting [4], 244 % of control; under setting [7], 123 % of control; under setting [10], 110 % of control; under setting [8], 123 % of control. The T/C is, setting by setting: (endpoint: median tumor weight (est.), dose: 50.0 mg/kg/injection, schedule: Q07DX005 (ip), vehicle: Klucel (hydroxypropylcellulose) (HPC)) 318 % of control; under setting [11], 65 % of control; under setting [9], 121 % of control; under setting [5], 323 % of control; (endpoint: median tumor weight (est.), dose: 200.0 mg/kg/injection, schedule: Q07DX005 (ip), vehicle: saline) 114 % of control.

On to `CC(=O)OCC(=O)[C@@]12OC(C)(C)O[C@@H]1C[C@H]1[C@@H]3CC(C=O)=C4C=C(OCCCl)CC[C@]4(C)[C@@]3(F)[C@@H](O)C[C@@]12C`, for which the T/C is, setting by setting: under setting [10], 41 % of control and 62 % of control; under setting [11], 1 % of control and 16 % of control; under setting [5], 1 % of control and 7 % of control; (endpoint: median tumor weight change, dose: 62.0 mg/kg/injection, schedule: Q01DX001 (ip), vehicle: Klucel (hydroxypropylcellulose) (HPC)) 32 % of control; (endpoint: median tumor weight change, dose: 62.5 mg/kg/injection, schedule: Q01DX001 (ip), vehicle: Klucel (hydroxypropylcellulose) (HPC)) 66 % of control.

Consider `CC(=O)[C@]1(O)Cc2c(O)c3c(c(O)c2[C@@H](OC2CC(N)C(O)C(C)O2)C1)C(=O)c1c(O)cccc1C3=O` (some centres undefined), for which, for the setting “endpoint: median tumor weight (est.), dose: 0.6 mg/kg/injection, schedule: Q07DX005 (ip), vehicle: water”, the T/C is 96 % of control.

For `CC1(C)N=C(N)N=C(N)N1c1ccc(F)c(C(F)(F)F)c1`, the T/C runs as follows: under setting [6], 97 % of control; under setting [9], 61 % of control.

As for `C[C@@]1(CO)[C@H](O)CC[C@@]2(C)[C@H]1CC[C@H]1C[C@@H]3C[C@@]12CC[C@@]3(O)COC(=O)CN`, the T/C is 78 % of control (endpoint: median tumor weight change, dose: 9.88 mg/kg/injection, schedule: Q01DX001 (ip), vehicle: Klucel (hydroxypropylcellulose) (HPC)); 68 % of control (endpoint: median tumor weight change, dose: 18.75 mg/kg/injection, schedule: Q01DX001 (ip), vehicle: Klucel (hydroxypropylcellulose) (HPC)); 98 % of control under setting [1]; 84 % of control under setting [2]; 170 % of control (endpoint: median tumor weight change, dose: 62.5 micrograms/kg/injection, schedule: Q01DX001 (ip), vehicle: saline + alcohol); 90 % of control (endpoint: median tumor weight change, dose: 125.0 micrograms/kg/injection, schedule: Q01DX001 (ip), vehicle: saline + alcohol). In addition, the T/C is, setting by setting: (endpoint: median tumor weight change, dose: 250.0 micrograms/kg/injection, schedule: Q01DX001 (ip), vehicle: saline + alcohol) 115 % of control; (endpoint: median tumor weight change, dose: 1000.0 micrograms/kg/injection, schedule: Q01DX001 (ip), vehicle: saline + alcohol) 106 % of control.

Turning to `CC(C)=CCNc1ncnc2c1ncn2C1OC(CO)C(O)C1O` (centres undefined), the T/C is, setting by setting: under setting [12], 78 % of control; under setting [13], 84 % of control; (endpoint: median tumor weight (est.), dose: 50.0 mg/kg/injection, schedule: Q07DX005 (ip), vehicle: saline with Tween-80) 113 % of control; (endpoint: median tumor weight (est.), dose: 100.0 mg/kg/injection, schedule: Q07DX005 (ip), vehicle: saline with Tween-80) 85 % of control; (endpoint: median tumor weight (est.), dose: 200.0 mg/kg/injection, schedule: Q07DX005 (ip), vehicle: saline with Tween-80) 82 % of control.

Take `C1CN(P2(N3CC3)=NP(N3CC3)(N3CC3)=NP(N3CC3)(N3CC3)=N2)CCO1` (centres undefined): the T/C is 39 % of control under setting [6], 44 % of control under setting [7] and 6 % of control under setting [8].

As to `O=C1C2CC=CCC2C(=O)N1SC(Cl)(Cl)Cl` (centres undefined), the T/C is 78 % of control (endpoint: median tumor weight (est.), dose: 3.12 mg/kg/injection, schedule: Q07DX005 (ip), vehicle: saline with Tween-80); 70 % of control (endpoint: median tumor weight (est.), dose: 6.25 mg/kg/injection, schedule: Q07DX005 (ip), vehicle: saline with Tween-80); 89 % of control under setting [12]; 74 % of control under setting [13].
